# Experimental data as given in patent US20240033237A1, “USE OF A-KETOGLUTARATE IN MANUFACTURE OF MEDICAMENT” (TONGJI UNIVERSITY, priority 2019, published 2024).
# Tested on: chondrocytes
# Assay: Amino acid content in chondrocytes upon IL-1β stimulation, LC-MS
# Format: cell-based, mouse
# Conditions: IL-1β treatment for 36 h, untreated 8740.24±584.31
# Description: Mouse chondrocytes were obtained from 7-day-old C57BL/6 mice (Shanghai Slac laboratory animal Co., Ltd.), and the procedure was as follows: under aseptic surgical conditions, bilateral knee cartilages of C57 mice were carefully stripped and digested with 0.2% neutral collagenase (Serva, Germany) for 8 h; cell precipitates were obtained by centrifugation, and the cells were resuspended in modified Eagle medium (DMEM) (Gibco, USA) containing 10% FBS, inoculated in culture dishes, and cultured with high-sugar DMEM medium (containing 10% FBS, 100 U/mL penicillin and 100 mg/L streptomycin) at 37° C. in a 5% CO2 constant temperature incubator. The medium was changed for the first time at 48 h. […] The cells were collected by centrifugation and resuspended, and the concentration was adjusted for inoculation in culture dishes. The cells were subcultured by the above method, and the obtained cells were labeled as P1, P2, P3 generations, etc. […]
# After being treated with IL-1β for 36 h, the chondrocytes were scraped off, and the changes of amino acid content in the chondrocytes were detected by LC-MS.
substance,measurement,value
IL-1β: interleukin-1β used to stimulate chondrocytes,Gln content in chondrocytes,330±150.32 ng/10^7
